This data set is classed as physicochemical. Here is the method: The stability of crystalline amlodipine free base bulk and amlodipine free base tablets was assessed by storing samples for up to 6 or 12 weeks at 25°C/60%RH, 40°C/75%RH and 50°C/20%RH. Changes were monitored using a stability-indicating HPLC method. Results were calculated by normalised peak area (npa). Degradants were identified by comparison of their relative retention times against impurity standards.

Regarding `CCOC(=O)C1=C(COCCN)NC(C)=C(C(=O)OC)C1c1ccccc1Cl` (stereo not shown) [crystalline amlodipine free base, 2-[(2-aminoethoxy)]-methyl-4-(2-chlorophenyl)-3-ethoxycarbonyl-5-methoxycarbonyl-6-methyl-1,4-dihydropyridine], the stability entry is “stability was demonstrated”.
